We go through 37 molecules from patent publication US11780845B2 (Relay Therapeutics, Inc., priority 2019, dated 2023).

Where only a bound is given, the exact number is not on record here.

One test concerns SNU16 cells. The experiment in a line: SNU16 Cancer Cell Line Proliferation Assay. In kind it is cell-based. The settings on record: Homo sapiens; SNU-16 cells. Put shortly: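 SNU16 cells were seeded, held 24 h at 37 degrees, then dosed with an 11-point 3-fold dilution series prepared from a 10 mM DMSO stock. After 96 h incubation, viability was read by CellTiter Glo luminescence.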

In a further test the target is FGFR2 (Homo sapiens (Human), UniProt P21802). The experiment in a line: FGFR2 Biochemical Caliper Assay. As for the experimental part: Compounds of the present invention were also tested in a FGFR2 Biochemical Caliper Assay. Compounds were prepared in 10 mM DMSO solution and serially diluted into 11 concentrations by 3-fold dilution. […] 5 uL of ATP solution (100 uM) was added to start the reaction and the plate was incubated for 90 minutes, then 70 uL of stopping buffer (0.5M EDTA) was added to terminate the reaction. Each well was analyzed using EZ reader.
Chain of FGFR2 (P21802 22-821): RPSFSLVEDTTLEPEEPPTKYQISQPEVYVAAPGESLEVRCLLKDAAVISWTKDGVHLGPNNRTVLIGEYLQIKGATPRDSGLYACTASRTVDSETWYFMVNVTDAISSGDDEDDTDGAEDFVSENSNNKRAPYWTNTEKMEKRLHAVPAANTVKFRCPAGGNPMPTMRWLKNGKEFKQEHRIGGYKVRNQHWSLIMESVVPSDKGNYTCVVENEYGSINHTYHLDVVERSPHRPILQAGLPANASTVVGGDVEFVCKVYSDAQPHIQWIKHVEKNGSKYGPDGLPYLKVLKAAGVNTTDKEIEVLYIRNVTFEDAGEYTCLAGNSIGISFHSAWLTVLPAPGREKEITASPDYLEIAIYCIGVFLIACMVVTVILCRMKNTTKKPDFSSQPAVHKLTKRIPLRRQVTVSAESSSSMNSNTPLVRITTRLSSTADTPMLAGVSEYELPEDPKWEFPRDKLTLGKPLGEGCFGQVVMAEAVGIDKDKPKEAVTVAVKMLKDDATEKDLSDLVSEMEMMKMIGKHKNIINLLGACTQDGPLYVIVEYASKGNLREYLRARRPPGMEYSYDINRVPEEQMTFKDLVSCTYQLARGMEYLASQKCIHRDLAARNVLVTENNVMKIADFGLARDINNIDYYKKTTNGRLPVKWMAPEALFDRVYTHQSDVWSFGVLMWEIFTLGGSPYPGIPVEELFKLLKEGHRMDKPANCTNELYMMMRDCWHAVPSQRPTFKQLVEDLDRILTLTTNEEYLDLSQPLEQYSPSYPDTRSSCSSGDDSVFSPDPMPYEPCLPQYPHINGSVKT

One may read the IC50 as the concentration at which inhibition is half-maximal. A low value points to greater potency. Regarding `C=CC(=O)Nc1ccc(-c2c(-c3ccc(Oc4ncc(F)cn4)c(OC)c3)c3c(N)ncnc3n2C)cc1` [Example 101], the figures for the IC50 in the test with SNU16 cells and against FGFR2 were at most 100 nM and below 100 nM, respectively.
In the same order, the values of `C=CC(=O)N1CCC(c2nnc(-c3c(-c4ccc(Oc5cccc(C)n5)cc4)c4c(N)ncnc4n3C)o2)CC1` [Example 651] are at most 100 nM and 100 to 250 nM.
In the same order, the values of `C=C(C)C(=O)Nc1ccc(-c2c(-c3ccc(Oc4ncc(F)cn4)c(OC)c3)c3c(N)ncnc3n2C)cc1` [Example 448] are 100 to 250 nM and 250 to 1000 nM.
The matching figures for `C=CC(=O)N1CCC(c2c(-c3ccc(OC)cc3)c3c(N)ncnc3n2C)C1` (centres unmarked) [Example 702]: 100 to 250 nM and 250 to 1000 nM.
On to `C=CC(=O)Nc1ccc(-c2c(C3=CCC(C(=O)N(C)C)CC3)c3c(N)ncnc3n2C)cc1` (centres unmarked) [Example 296], for which the IC50 in the test with SNU16 cells was at most 100 nM; at FGFR2, below 100 nM.
In the same order, the values of `C=C(C)C(=O)Nc1ccc(-c2c(-c3ccc(S(=O)(=O)NC4CCCC4O)cc3)c3c(N)ncnc3n2C)cc1` (centres unmarked) [Example 309] are 250 to 1000 nM and 1000 to 100000 nM.
With `C=C(C)C(=O)Nc1ccc(-c2c(-c3ccc(Oc4nccc(C#N)n4)c(F)c3)c3c(N)ncnc3n2C)cc1` [Example 503], the figures for the IC50 with SNU16 cells and at FGFR2 were at most 100 nM and below 100 nM, respectively.
In the same order, the values of `C=C(C)C(=O)Nc1ccc(-c2c(-c3ccc(C(=O)N4CCCC4)cc3)c3c(N)ncnc3n2C)cc1OC` [Example 354] are 250 to 1000 nM and 1000 to 100000 nM.
As to `C=C(C)C(=O)Nc1ccc(-c2c(-c3ccc(NC(C)=O)c(OC)c3)c3c(N)ncnc3n2C)cc1` [Example 86], the figures for the 50% inhibitory concentration (IC50) in the test with SNU16 cells and against FGFR2 were 250 to 1000 nM and 1000 to 100000 nM, respectively.
The matching figures for `CC#CC(=O)N1CCC(n2cc(-c3c(-c4ccc(Oc5cccc(C)n5)cc4)c4c(N)ncnc4n3C)cn2)C1` (centres unmarked) [Example 635]: at most 100 nM and 100 to 250 nM.
For `C=C(C)C(=O)Nc1ccc(-c2c(-c3ccc(C(=O)NC4CCCOC4)cc3)c3c(N)ncnc3n2C)cc1` (centres unmarked) [Example 327], the IC50 with SNU16 cells is 100 to 250 nM; against FGFR2 it was below 100 nM.
As for `C=C(C)C(=O)Nc1ccc(-c2c(-c3ccc(C(=O)NCC(C)(C)F)cc3)c3c(N)ncnc3n2C)cc1` [Example 408], the IC50 in the test on SNU16 cells is at most 100 nM; against FGFR2 it was below 100 nM.
With `C=CC(=O)N1CCC(c2c(-c3ccc(Oc4cccc(C)n4)cc3)c3c(N)ncnc3n2C)CC1` [Example 647], the IC50 is at most 100 nM with SNU16 cells and below 100 nM at FGFR2.
With `C=C(C)C(=O)Nc1ccc(-c2c(-c3ccc(Oc4cccc(C)n4)c(OC)c3)c3c(N)ncnc3n2C)cc1` [Example 4], the IC50 in the test with SNU16 cells was at most 100 nM; against FGFR2 it was below 100 nM.
On to `C=C(C)C(=O)Nc1ccc(-c2c(-c3ccc(Oc4nccc(C)n4)c(F)c3)c3c(N)ncnc3n2[C@@H]2CCOC2)cc1` (single isomer, unassigned) [Example 539], for which the IC50 is at most 100 nM in the test with SNU16 cells and below 100 nM at FGFR2.
The matching figures for `C=C(C)C(=O)Nc1ccc(-c2c(-c3ccc(C(=O)N(C)CC4(F)COC4)cc3)c3c(N)ncnc3n2C)cc1` [Example 411]: 250 to 1000 nM and 250 to 1000 nM.
For `C=CC(=O)N1CCC(n2cc(-c3c(-c4ccc(Oc5ccccc5)cc4)c4c(N)ncnc4n3C)cn2)CC1` [Example 602], the IC50 in the test with SNU16 cells is at most 100 nM; against FGFR2, below 100 nM.
With `C=C(C)C(=O)Nc1ccc(-c2c(-c3ccc(Oc4cccc(C)n4)c(F)c3)c3c(N)ncnc3n2C)cc1` [Example 395], the IC50 in the test on SNU16 cells is at most 100 nM; at FGFR2, below 100 nM.
In the case of `C=C(C)C(=O)Nc1ccc(-c2c(-c3ccc(C(=O)N4CC5CC4C5)cc3F)c3c(N)ncnc3n2C)cc1` [Example 562], the IC50 in the test with SNU16 cells is at most 100 nM; at FGFR2, 100 to 250 nM.
`CN(C)C/C=C/C(=O)Nc1ccc(-c2c(-c3ccc(C(=O)N4CCCC4)cc3)c3c(N)ncnc3n2C)cc1` [Example 206]: the IC50 with SNU16 cells was 100 to 250 nM; on FGFR2, below 100 nM.
On to `C=C(C)C(=O)Nc1ccc(-c2c(-c3ccc(C(=O)N4CCC[C@@H]4COC)cc3)c3c(N)ncnc3n2C)cc1` [Example 361], for which the IC50 in the test on SNU16 cells and at FGFR2 was 250 to 1000 nM throughout.
As to `C=C(C)C(=O)Nc1ccc(-c2c(-c3ccc(Oc4cccc(C)n4)cc3)c3c(N)ncnc3n2CCOC)cc1` [Example 370], the figures for the IC50 in the test with SNU16 cells and against FGFR2 were at most 100 nM and below 100 nM, respectively.
For the molecule `C=C(C)C(=O)Nc1ccc(-c2c(-c3ccc(C(=O)N4CC5CC4C5)cc3)c3c(N)ncnc3n2C)cc1` [Example 272], the values for the IC50 with SNU16 cells and against FGFR2 were at most 100 nM and below 100 nM, respectively.
The matching figures for `C=C(C)C(=O)Nc1ccc(-c2c(-c3ccc(C(=O)N4CCCC[C@@H]4C)cc3)c3c(N)ncnc3n2C)cc1` [Example 292]: at most 100 nM and below 100 nM.
On to `C=CC(=O)N1CC[C@H](c2c(-c3ccc(Oc4ncccn4)cc3)c3c(N)ncnc3n2CC)C1` (single isomer, unassigned) [Example 710], for which the figures for the IC50 in the test on SNU16 cells and against FGFR2 were 100 to 250 nM and 250 to 1000 nM, respectively.
The matching figures for `C=CC(=O)N1CCC(c2c(-c3ccc(CN4CCCS4(=O)=O)cc3)c3c(N)ncnc3n2C)C1` (centres unmarked) [Example 797]: 250 to 1000 nM and 250 to 1000 nM.
The matching figures for `C=CC(=O)Nc1ccc(-c2c(-c3ccc(Oc4ncc(C(F)F)cn4)c(OC)c3)c3c(N)ncnc3n2C)cc1` [Example 113]: at most 100 nM and below 100 nM.
In the same order, the values of `C=C(C)C(=O)Nc1ccc(-c2c(-c3ccc(N4CCCCC4=O)cc3)c3c(N)ncnc3n2C)cc1` [Example 186] are 250 to 1000 nM and 1000 to 100000 nM.
As for `C=CC(=O)N1CC=C(c2c(-c3ccc(Oc4ncccn4)c(OC)c3)c3c(N)ncnc3n2C)CC1` [Example 674], the values for the IC50 with SNU16 cells and on FGFR2 were at most 100 nM and below 100 nM, respectively.
Regarding `C=C(C)C(=O)Nc1ccc(-c2c(-c3ccc(C(=O)N(C)CC(F)(F)F)cc3)c3c(N)ncnc3n2C)cc1` [Example 304], the IC50 in the test on SNU16 cells was at most 100 nM; against FGFR2 it was below 100 nM.
In the same order, the values of `C/C=C/C(=O)N1CCC(c2c(-c3ccc(Oc4cccc(C)n4)cc3)c3c(N)ncnc3n2C)CC1` [Example 694] are 250 to 1000 nM and 250 to 1000 nM.
In the same order, the values of `C=CC(=O)N1CC=C(c2c(-c3ccc(Oc4cccc(CC)n4)c(OC)c3)c3c(N)ncnc3n2C)CC1` [Example 690] are at most 100 nM and below 100 nM.
The matching figures for `C=C(C)C(=O)Nc1ccc(-c2c(-c3ccc(Oc4nccc(C)n4)c(F)c3)c3c(N)ncnc3n2C)c(C(F)F)c1` [Example 526]: at most 100 nM and below 100 nM.
On to `C=C(C)C(=O)Nc1ccc(-c2c(-c3ccc(C(=O)N4CCCC4)cc3C#N)c3c(N)ncnc3n2C)cc1` [Example 563], for which the IC50 is 250 to 1000 nM with SNU16 cells and 1000 to 100000 nM at FGFR2.
As to `C=C(C)C(=O)Nc1ccc(-c2c(-c3ccc(C(=O)NCC(C)(C)COC)cc3)c3c(N)ncnc3n2C)cc1` [Example 409], the IC50 is at most 100 nM in the test with SNU16 cells and below 100 nM against FGFR2.
On to `C=C(C)C(=O)Nc1ccc(-c2c(-c3ccc(Oc4cccc(F)c4)nc3)c3c(N)ncnc3n2C)cc1` [Example 167], for which the IC50 lay within 100 to 250 nM in the test on SNU16 cells and 1000 to 100000 nM at FGFR2.
With `C=C(C)C(=O)Nc1ccc(-c2c(-c3ccc(C(=O)N4CCCC[C@H]4C)cc3)c3c(N)ncnc3n2C)c(F)c1` [Example 462], the figures for the IC50 in the test on SNU16 cells and against FGFR2 were at most 100 nM and below 100 nM, respectively.
